From ChEMBL document CHEMBL3797029, “Purinylpyridinylamino-based DFG-in/αC-helix-out B-Raf inhibitors: Applying mutant versus wild-type B-Raf selectivity indices for compound profiling” (Bioorg Med Chem, 2016)

Experiments:
[1] = target: Mitogen-activated protein kinase 10 (Homo sapiens) (UniProt P53779); experiment: Inhibition of partial length wild type human JNK3 expressed in mammalian system assessed as enzyme activity at 1 uM relative to control; design: scale not given: the % may be the effect or the level left
Sequence of Mitogen-activated protein kinase 10 (Homo sapiens) (P53779 whole entry): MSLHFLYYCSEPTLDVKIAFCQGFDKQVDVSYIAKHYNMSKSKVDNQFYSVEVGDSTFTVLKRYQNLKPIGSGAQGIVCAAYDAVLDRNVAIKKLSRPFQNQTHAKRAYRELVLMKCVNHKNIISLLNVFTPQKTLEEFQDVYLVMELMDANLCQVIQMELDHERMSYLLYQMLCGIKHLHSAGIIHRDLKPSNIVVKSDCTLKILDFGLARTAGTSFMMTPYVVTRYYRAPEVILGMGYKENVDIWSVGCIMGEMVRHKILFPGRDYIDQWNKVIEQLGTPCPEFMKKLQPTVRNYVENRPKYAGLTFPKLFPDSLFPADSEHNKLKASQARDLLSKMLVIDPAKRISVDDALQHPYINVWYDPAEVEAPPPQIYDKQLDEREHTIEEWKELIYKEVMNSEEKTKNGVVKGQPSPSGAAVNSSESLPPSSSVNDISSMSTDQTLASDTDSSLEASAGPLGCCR

[2] = target: Dual specificity protein kinase CLK1 (Homo sapiens) (UniProt P49759); experiment: Inhibition of full length wild type human CLK1 expressed in bacterial system assessed as enzyme activity at 1 uM relative to control; design: scale not given: the % may be the effect or the level left
[3] = target: Mitogen-activated protein kinase 1 (Homo sapiens) (UniProt P28482); experiment: Inhibition of full length wild type human ERK2 expressed in bacterial system assessed as enzyme activity at 1 uM relative to control; design: scale not given: the % may be the effect or the level left
[4] = target: ALK tyrosine kinase receptor (Homo sapiens) (UniProt Q9UM73); experiment: Inhibition of partial length wild type human ALK expressed in mammalian system assessed as enzyme activity at 1 uM relative to control; design: scale not given: the % may be the effect or the level left
[5] = target: 5'-AMP-activated protein kinase catalytic subunit alpha-1 (Homo sapiens) (UniProt Q13131); experiment: Inhibition of partial length wild type human AMPKalpha1 expressed in bacterial system assessed as enzyme activity at 1 uM relative to control; design: scale not given: the % may be the effect or the level left
[6] = target: Bone morphogenetic protein receptor type-1A (Homo sapiens) (UniProt P36894); experiment: Inhibition of partial length wild type human BMPR1A expressed in bacterial system assessed as enzyme activity at 1 uM relative to control; design: scale not given: the % may be the effect or the level left
[7] = target: Cyclin-dependent kinase 2 (Homo sapiens) (UniProt P24941); experiment: Inhibition of full length wild type human CDK2 expressed in bacterial system assessed as enzyme activity at 1 uM relative to control; design: scale not given: the % may be the effect or the level left
[8] = target: Glycogen synthase kinase-3 beta (Homo sapiens) (UniProt P49841); experiment: Inhibition of full length wild type human GSK3beta expressed in mammalian system assessed as enzyme activity at 1 uM relative to control; design: scale not given: the % may be the effect or the level left
[9] = target: Interleukin-1 receptor-associated kinase 4 (Homo sapiens) (UniProt Q9NWZ3); experiment: Inhibition of partial length wild type human IRAK4 expressed in mammalian system assessed as enzyme activity at 1 uM relative to control; design: scale not given: the % may be the effect or the level left
[10] = target: Mitogen-activated protein kinase kinase kinase kinase 4 (Homo sapiens) (UniProt O95819); experiment: Inhibition of partial length wild type human MAP4K4 expressed in bacterial system assessed as enzyme activity at 1 uM relative to control; design: scale not given: the % may be the effect or the level left
Sequence of Mitogen-activated protein kinase kinase kinase kinase 4 (Homo sapiens) (O95819 2-1239 limits assumed): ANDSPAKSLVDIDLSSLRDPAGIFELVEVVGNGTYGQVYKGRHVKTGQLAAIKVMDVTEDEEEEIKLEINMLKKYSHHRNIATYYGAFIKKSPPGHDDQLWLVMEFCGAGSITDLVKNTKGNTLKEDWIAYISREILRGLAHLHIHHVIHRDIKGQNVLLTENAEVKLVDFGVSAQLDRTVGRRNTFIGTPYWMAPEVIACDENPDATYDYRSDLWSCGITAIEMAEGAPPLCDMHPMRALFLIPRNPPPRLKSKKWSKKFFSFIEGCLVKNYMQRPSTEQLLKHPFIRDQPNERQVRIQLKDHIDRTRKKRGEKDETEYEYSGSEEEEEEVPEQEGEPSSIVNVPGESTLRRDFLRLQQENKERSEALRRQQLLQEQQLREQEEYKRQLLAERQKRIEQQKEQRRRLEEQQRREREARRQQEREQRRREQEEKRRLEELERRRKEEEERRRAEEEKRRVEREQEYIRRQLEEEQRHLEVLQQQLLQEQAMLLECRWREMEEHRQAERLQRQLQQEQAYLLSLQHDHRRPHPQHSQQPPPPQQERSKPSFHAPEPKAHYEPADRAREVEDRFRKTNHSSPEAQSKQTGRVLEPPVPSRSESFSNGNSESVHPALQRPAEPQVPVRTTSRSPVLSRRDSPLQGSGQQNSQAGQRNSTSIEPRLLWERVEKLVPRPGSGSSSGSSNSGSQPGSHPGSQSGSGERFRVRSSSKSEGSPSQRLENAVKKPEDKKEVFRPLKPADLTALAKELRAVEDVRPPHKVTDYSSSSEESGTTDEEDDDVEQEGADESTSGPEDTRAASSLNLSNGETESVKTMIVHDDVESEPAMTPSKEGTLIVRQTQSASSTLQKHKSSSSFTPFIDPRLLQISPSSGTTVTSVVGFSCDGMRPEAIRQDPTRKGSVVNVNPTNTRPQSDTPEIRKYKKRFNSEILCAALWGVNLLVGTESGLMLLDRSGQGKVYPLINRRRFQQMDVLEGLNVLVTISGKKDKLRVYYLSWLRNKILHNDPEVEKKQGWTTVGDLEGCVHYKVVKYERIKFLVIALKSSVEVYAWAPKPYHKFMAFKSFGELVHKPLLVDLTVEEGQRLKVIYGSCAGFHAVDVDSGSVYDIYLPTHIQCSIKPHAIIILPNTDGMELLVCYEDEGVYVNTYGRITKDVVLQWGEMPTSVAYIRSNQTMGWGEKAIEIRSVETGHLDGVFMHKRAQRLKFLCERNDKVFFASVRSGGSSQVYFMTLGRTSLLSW

[11] = target: Mitogen-activated protein kinase kinase kinase 9 (Homo sapiens) (UniProt P80192); experiment: Inhibition of partial length wild type human MLK1 expressed in bacterial system assessed as enzyme activity at 1 uM relative to control; design: scale not given: the % may be the effect or the level left
Sequence of Mitogen-activated protein kinase kinase kinase 9 (Homo sapiens) (P80192 whole entry, looked up): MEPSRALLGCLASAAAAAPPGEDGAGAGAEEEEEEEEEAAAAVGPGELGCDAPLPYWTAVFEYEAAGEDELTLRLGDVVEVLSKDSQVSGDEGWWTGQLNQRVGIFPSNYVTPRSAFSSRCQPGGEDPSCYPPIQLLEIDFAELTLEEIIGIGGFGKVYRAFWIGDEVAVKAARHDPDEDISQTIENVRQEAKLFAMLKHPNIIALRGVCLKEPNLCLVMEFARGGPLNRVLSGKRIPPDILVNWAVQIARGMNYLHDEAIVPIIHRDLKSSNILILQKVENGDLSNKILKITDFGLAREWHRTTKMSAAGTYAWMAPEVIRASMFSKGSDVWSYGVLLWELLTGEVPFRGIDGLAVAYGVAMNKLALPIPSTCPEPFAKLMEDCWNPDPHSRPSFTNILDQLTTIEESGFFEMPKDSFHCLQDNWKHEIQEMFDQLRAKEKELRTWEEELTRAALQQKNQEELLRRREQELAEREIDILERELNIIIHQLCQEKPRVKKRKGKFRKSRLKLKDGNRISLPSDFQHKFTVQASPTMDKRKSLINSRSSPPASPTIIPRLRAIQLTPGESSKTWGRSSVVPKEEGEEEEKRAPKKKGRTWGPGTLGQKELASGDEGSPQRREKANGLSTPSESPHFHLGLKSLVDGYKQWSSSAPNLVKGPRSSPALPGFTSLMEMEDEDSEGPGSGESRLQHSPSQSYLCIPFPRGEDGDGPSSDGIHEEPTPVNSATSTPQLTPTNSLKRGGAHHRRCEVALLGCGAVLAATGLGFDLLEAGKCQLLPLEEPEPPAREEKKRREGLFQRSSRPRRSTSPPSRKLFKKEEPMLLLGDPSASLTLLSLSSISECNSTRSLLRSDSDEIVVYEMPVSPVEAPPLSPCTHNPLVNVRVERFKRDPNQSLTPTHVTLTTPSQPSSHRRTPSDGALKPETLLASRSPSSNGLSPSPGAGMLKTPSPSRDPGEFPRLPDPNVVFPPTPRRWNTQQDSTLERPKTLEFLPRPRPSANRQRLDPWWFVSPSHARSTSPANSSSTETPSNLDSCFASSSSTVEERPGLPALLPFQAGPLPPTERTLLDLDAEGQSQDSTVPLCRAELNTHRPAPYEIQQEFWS

[12] = target: Serine/threonine-protein kinase 3 (Homo sapiens) (UniProt Q13188); experiment: Inhibition of partial length wild type human MST2 expressed in bacterial system assessed as enzyme activity at 1 uM relative to control; design: scale not given: the % may be the effect or the level left
[13] = target: Serine/threonine-protein kinase Nek4 (Homo sapiens) (UniProt P51957); experiment: Inhibition of full length wild type human NEK4 expressed in mammalian system assessed as enzyme activity at 1 uM relative to control; design: scale not given: the % may be the effect or the level left
[14] = target: Protein kinase C epsilon type (Homo sapiens) (UniProt Q02156); experiment: Inhibition of partial length wild type human PRKCE expressed in mammalian system assessed as enzyme activity at 1 uM relative to control; design: scale not given: the % may be the effect or the level left
[15] = target: Serine/threonine-protein kinase 33 (Homo sapiens) (UniProt Q9BYT3); experiment: Inhibition of full length wild type human STK33 expressed in bacterial system assessed as enzyme activity at 1 uM relative to control; design: scale not given: the % may be the effect or the level left
[16] = target: Serine/threonine-protein kinase TBK1 (Homo sapiens) (UniProt Q9UHD2); experiment: Inhibition of full length wild type human TBK1 expressed in mammalian system assessed as enzyme activity at 1 uM relative to control; design: scale not given: the % may be the effect or the level left
Sequence of Serine/threonine-protein kinase TBK1 (Homo sapiens) (Q9UHD2 whole entry, the tested form may be a part): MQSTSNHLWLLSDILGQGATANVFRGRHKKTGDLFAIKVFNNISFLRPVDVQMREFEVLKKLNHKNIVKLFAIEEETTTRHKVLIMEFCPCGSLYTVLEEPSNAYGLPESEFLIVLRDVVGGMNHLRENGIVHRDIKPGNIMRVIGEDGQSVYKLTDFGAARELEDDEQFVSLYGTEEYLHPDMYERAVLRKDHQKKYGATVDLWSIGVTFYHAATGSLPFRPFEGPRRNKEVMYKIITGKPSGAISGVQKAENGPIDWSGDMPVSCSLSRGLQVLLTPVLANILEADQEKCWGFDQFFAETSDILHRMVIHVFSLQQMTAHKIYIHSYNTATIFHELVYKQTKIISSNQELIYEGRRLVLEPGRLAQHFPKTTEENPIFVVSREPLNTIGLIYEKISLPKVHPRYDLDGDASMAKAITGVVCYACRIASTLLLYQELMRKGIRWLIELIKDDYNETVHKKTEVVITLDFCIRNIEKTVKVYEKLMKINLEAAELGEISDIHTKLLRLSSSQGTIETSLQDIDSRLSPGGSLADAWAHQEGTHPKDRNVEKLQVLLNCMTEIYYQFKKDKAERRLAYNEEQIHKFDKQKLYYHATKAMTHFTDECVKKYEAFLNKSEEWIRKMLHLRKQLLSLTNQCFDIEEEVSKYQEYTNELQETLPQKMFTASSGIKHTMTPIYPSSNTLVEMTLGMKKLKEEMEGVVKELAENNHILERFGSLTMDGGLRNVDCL

[17] = target: Non-receptor tyrosine-protein kinase TYK2 (Homo sapiens) (UniProt P29597); experiment: Inhibition of partial length wild type human TYK2 (catalytic JH1 domain) expressed in mammalian system assessed as enzyme activity at 1 uM relative to control; design: scale not given: the % may be the effect or the level left
[18] = target: Serine/threonine-protein kinase B-raf (Homo sapiens, UniProt P15056, V600E); experiment: Inhibition of B-Raf V600E mutant (unknown origin) assessed as MEK1 phosphorylation using MEK1-Avitag as substrate after 1 hr by HTRF assay
[19] = target: Angiopoietin-1 receptor (Homo sapiens) (UniProt Q02763); experiment: Inhibition of partial length wild type human TIE2 expressed in bacterial system assessed as enzyme activity at 1 uM relative to control; design: scale not given: the % may be the effect or the level left
[20] = target: Mitogen-activated protein kinase kinase kinase 19 (Homo sapiens) (UniProt Q56UN5); experiment: Inhibition of partial length wild type human YSK4 expressed in mammalian system assessed as enzyme activity at 1 uM relative to control; design: scale not given: the % may be the effect or the level left
[21] = target: Dual specificity protein kinase CLK2 (Homo sapiens) (UniProt P49760); experiment: Inhibition of partial length wild type human CLK2 expressed in bacterial system assessed as enzyme activity at 1 uM relative to control; design: scale not given: the % may be the effect or the level left
Sequence of Dual specificity protein kinase CLK2 (Homo sapiens) (P49760 whole entry, looked up): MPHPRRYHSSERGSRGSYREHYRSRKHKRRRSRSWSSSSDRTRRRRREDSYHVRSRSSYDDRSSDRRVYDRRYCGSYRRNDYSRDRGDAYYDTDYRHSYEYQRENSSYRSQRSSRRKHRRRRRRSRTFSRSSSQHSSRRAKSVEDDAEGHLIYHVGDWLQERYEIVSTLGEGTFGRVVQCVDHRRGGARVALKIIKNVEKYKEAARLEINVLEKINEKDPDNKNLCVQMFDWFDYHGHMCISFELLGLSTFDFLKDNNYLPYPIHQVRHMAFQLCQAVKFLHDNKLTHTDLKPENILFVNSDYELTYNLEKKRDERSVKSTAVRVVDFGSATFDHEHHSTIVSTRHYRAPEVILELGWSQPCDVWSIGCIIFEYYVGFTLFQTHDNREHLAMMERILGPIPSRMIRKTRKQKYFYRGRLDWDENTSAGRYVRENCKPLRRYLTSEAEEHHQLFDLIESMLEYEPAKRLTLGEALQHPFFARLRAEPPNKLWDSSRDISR

[22] = target: Cyclin-G-associated kinase (Homo sapiens) (UniProt O14976); experiment: Inhibition of partial length wild type human GAK expressed in bacterial system assessed as enzyme activity at 1 uM relative to control; design: scale not given: the % may be the effect or the level left
[23] = target: Interferon-induced, double-stranded RNA-activated protein kinase (Homo sapiens) (UniProt P19525); experiment: Inhibition of partial length wild type human PRKR expressed in bacterial system assessed as enzyme activity at 1 uM relative to control; design: scale not given: the % may be the effect or the level left
[24] = target: Mitogen-activated protein kinase kinase kinase 1 (Homo sapiens) (UniProt Q13233); experiment: Inhibition of partial length wild type human MAP3K1 expressed in mammalian system assessed as enzyme activity at 1 uM relative to control; design: scale not given: the % may be the effect or the level left
[25] = target: Cyclin-dependent kinase 18 (Homo sapiens) (UniProt Q07002); experiment: Inhibition of full length wild type human PCTK3 expressed in bacterial system assessed as enzyme activity at 1 uM relative to control; design: scale not given: the % may be the effect or the level left
Sequence of Cyclin-dependent kinase 18 (Homo sapiens) (Q07002 whole entry): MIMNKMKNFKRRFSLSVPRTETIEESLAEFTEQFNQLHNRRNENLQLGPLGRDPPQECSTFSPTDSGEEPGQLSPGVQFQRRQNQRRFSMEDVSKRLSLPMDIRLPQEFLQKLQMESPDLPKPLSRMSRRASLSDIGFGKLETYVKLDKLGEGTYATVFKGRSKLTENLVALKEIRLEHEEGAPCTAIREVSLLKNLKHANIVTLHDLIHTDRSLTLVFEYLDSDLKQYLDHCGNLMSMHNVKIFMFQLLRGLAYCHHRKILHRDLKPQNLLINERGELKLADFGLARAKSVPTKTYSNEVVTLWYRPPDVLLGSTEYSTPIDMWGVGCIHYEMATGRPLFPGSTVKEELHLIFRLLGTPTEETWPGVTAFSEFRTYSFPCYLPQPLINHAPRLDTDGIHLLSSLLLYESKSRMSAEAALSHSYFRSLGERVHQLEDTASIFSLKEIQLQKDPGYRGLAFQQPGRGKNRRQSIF

[26] = target: Tyrosine-protein kinase Lyn (Homo sapiens) (UniProt P07948); experiment: Inhibition of partial length wild type human LYN expressed in bacterial system assessed as enzyme activity at 1 uM relative to control; design: scale not given: the % may be the effect or the level left
[27] = target: Serine/threonine-protein kinase Chk1 (Homo sapiens) (UniProt O14757); experiment: Inhibition of partial length wild type human CHEK1 expressed in bacterial system assessed as enzyme activity at 1 uM relative to control; design: scale not given: the % may be the effect or the level left
[28] = target: Serine/threonine-protein kinase PAK 2 (Homo sapiens) (UniProt Q13177); experiment: Inhibition of partial length wild type human PAK2 expressed in bacterial system assessed as enzyme activity at 1 uM relative to control; design: scale not given: the % may be the effect or the level left
Sequence of Serine/threonine-protein kinase PAK 2 (Homo sapiens) (Q13177 whole entry): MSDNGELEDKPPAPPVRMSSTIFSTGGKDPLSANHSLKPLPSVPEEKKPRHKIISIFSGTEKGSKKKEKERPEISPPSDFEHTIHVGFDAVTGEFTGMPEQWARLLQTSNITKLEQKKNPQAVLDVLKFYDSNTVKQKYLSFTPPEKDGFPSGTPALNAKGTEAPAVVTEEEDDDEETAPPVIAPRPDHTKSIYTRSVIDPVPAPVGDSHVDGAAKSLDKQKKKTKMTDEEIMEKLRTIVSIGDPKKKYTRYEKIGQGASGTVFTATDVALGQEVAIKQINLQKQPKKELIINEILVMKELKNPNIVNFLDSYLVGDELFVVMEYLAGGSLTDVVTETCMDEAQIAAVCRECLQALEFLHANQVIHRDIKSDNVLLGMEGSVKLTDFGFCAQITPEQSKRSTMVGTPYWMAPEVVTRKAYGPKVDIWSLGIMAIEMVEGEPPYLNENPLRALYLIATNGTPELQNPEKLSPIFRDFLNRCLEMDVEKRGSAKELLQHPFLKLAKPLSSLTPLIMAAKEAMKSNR

[29] = target: Ribosomal protein S6 kinase alpha-1 (Homo sapiens) (UniProt Q15418); experiment: Inhibition of partial length wild type human RSK1(Kin.Dom.1-N-terminal) expressed in bacterial system assessed as enzyme activity at 1 uM relative to control; design: scale not given: the % may be the effect or the level left
[30] = tested on: RIPK2 (Receptor-interacting serine/threonine-protein kinase 2); experiment: Inhibition of partial length wild type human RIPK2 expressed in bacterial system assessed as enzyme activity at 1 uM relative to control; design: scale not given: the % may be the effect or the level left
[31] = tested on: cAMP-dependent protein kinase catalytic subunit alpha; experiment: Inhibition of partial length wild type human PKACalpha expressed in bacterial system assessed as enzyme activity at 1 uM relative to control; design: scale not given: the % may be the effect or the level left

## CN(C)S(=O)(=O)Nc1ccc(F)c(Nc2ncccc2-c2ncnc3[nH]cnc23)c1F
[1]
  Activity: 89%
[2]
  Activity: 90%
[3]
  Activity: 98%
[4]
  Activity: 96%
[5]
  Activity: 92%
[6]
  Activity: 63%
[7]
  Activity: 99%
[8]
  Activity: 100%
[9]
  Activity: 99%
[10]
  Activity: 98%
[11]
  Activity: 96%
[12]
  Activity: 91%
[13]
  Activity: 100%
[14]
  Activity: 87%
[15]
  Activity: 100%
[16]
  Activity: 100%
[17]
  Activity: 100%
[18]
  IC50: 8 nM
[19]
  Activity: 63%
[20]
  Activity: 63%
[21]
  Activity: 79%
[22]
  Activity: 78%
[23]
  Activity: 83%
[24]
  Activity: 83%
[25]
  Activity: 89%
[26]
  Activity: 93%
[27]
  Activity: 86%
[28]
  Activity: 94%
[29]
  Activity: 94%
[30]
  Activity: 40%
[31]
  Activity: 94%
